# In patent EP2014655B1, “Etnangien derivatives and their use as antibiotics” (Helmholtz-Zentrum für Infektionsforschung, priority 2007, dated 2009):
# How the values were obtained:
# [1] = biological target: T1, Moloney murine leukemia virus reverse transcriptase (MuLVRT) (Moloney murine leukemia virus, UniProt P03355); assay: Nucleic acid polymerase inhibition, in vitro assay; assay type: biochemical
# T1 construct: Moloney murine leukemia virus reverse transcriptase (MuLVRT)
# Protocol: (§1) Similar antiviral activity is found for the Etnangien esters according to the invention.
# (§2) Measurement results showing the nucleic acid polymerase inhibition by Etnangien 1 are shown in Figure 2 for E. coli RNA polymerase (EcRNAP), E. coli DNA polymerase (EcDNAP), and HIV I reverse transcriptase (HIVRT), and in Figure 3 for Moloney murine leukemia virus reverse transcriptase (MuLVRT). In vitro assays were performed according to Richardson et al. (J. Biol. Chem. 222-232 (1964)) and Houts et al. (J. Virol. 517-522(1979)). Maximum inhibition for E. coli polymerases was found for concentrations of 50 to 60 µg/mL, although E. coli itself was rather resistant.
# [2] = biological target: T2, HIV I reverse transcriptase (HIVRT) (Human immunodeficiency virus type 1 group M subtype B, UniProt P04585); assay: Nucleic acid polymerase inhibition, in vitro assay; assay type: biochemical; settings: result in words
# T2 construct: HIV I reverse transcriptase (HIVRT)
# Protocol: as §1, §2
# Micrococcus luteus = assay: MIC by serial dilution; assay type: cell-based
# Protocol: (§3) Antibiotic activity, which is assumed to be based on the inhibition of the RNA polymerase, was tested against several gram-positive and gram-negative bacteria and Saccharomyces cerevisiae, including a Rifampicin resistant Staphylococcus aureus clinical isolate.
# (§4) The microorganisms tested were grown on 1% peptone, 0.1% meat extract, 0.1% yeast extract medium containing 1.5% agar at pH 7.0. MIC values were determined by serial dilution. Table 2: Antimicrobial activity of Etnangien methylester in comparison to Etnangien acid 1
# Staphylococcus aureus = assay: MIC by serial dilution; assay type: cell-based
# Protocol: as §3, §4
# [3] = system: Corynebacterium glutamicum (DSM 20300); assay: MIC by serial dilution; assay type: cell-based; settings: DSM20300
# Protocol: as §3, §4
# [4] = system: S. aureus, Rifampicin resistant; assay: MIC by serial dilution; assay type: cell-based; settings: Staphylococcus aureus
# Protocol: as §3, §4
# Nocardia corallina = assay: MIC by serial dilution; assay type: cell-based; settings: Gordonia rubripertincta
# Protocol: as §3, §4
# E. coli = assay: MIC by serial dilution; assay type: cell-based; settings: Escherichia coli
# Protocol: as §3, §4
# Bacillus subtilis = assay: MIC by serial dilution; assay type: cell-based
# Protocol: as §3, §4
# Saccharomyces cerevisiae = assay: MIC by serial dilution; assay type: cell-based
# Protocol: as §3, §4
Molecule,"concentration of maximum inhibition ([1]; MuLVRT, Figure 3)",inhibition of reverse transcriptase ([1]; at concentrations of 5 µg/mL),inhibition of viral reverse transcriptase [2],MIC (Micrococcus luteus),MIC (Staphylococcus aureus),MIC [3],MIC [4],MIC (Nocardia corallina),MIC (E. coli),MIC (Bacillus subtilis),MIC (Saccharomyces cerevisiae)
Etnangien,5 µg/mL,inhibited completely,potent inhibitor,–,–,–,–,–,–,–,–
COC(=O)CC/C(C)=C/C(O)C/C=C/C=C/C=C/C=C/C=C/C(C)=C/C(O)C(C)C1CC(O)CCCC(OC)C/C=C\C=C\CC(C)C(O)C(C)C(O)C(C)C(O)CC(=O)O1 (stereo not drawn) [Etnangien methylester],–,–,–,0.39 µg/mL,2.5 µg/mL,0.24 µg/mL,3.1 µg/mL,0.12 µg/mL,> 80 µg/mL,20 µg/mL,> 40 µg/mL
COC1C/C=C\C=C\CC(C)C(O)C(C)C(O)C(C)C(O)CC(=O)OC(C(C)C(O)/C=C(C)/C=C/C=C/C=C/C=C/C=C/CC(O)/C=C(\C)CCC(=O)O)CC(O)CCC1 (stereo not drawn) [Etnangien],–,–,–,–,–,–,–,–,> 80 µg/mL,–,–
